Laboratory results from ChEMBL document CHEMBL3885861, “Open TG-GATES”.

Species: Rattus norvegicus
Test: Open TG-GATES - Regimen: Single
Type: toxicity, organism-based, Sprague-Dawley
Set-up: regimen Single, gender Male, age 6 weeks
Conditions: in vivo, po, 100 mg/kg, route gavage, dose level Low; for APTT / Bas / Eos / Fbg / Hb / Ht / Lym / MCH / MCHC / MCV / Mono / Neu / PT / Plat / RBC / Ret / WBC: tissue Blood; for KIDNEY_L / KIDNEY_R / KIDNEY_TOTAL: tissue Kidney; for LIVER: tissue Liver; for A/G / ALP / ALT / AST / BUN / CRE / Ca / Cl / DBIL / GLC / IP / K / LDH / Na / PL / RALB / TBIL / TC / TG / TP / gamma-GTP: tissue Plasma

Work on `CN/C(=N/CCSCc1nc[nH]c1C)NC#N` [CIMETIDINE] yielded a TERMINAL_BW (3 h) of 214.5 g, an APTT (3 h) of 18.3 s and a Bas (3 h) of 0%. For the same compound, the Eos (3 h) was 1%, the Fbg (3 h) was 220.4 mg/dL and the Hb (3 h) was 13.1 g/dL. For the same compound, the Ht (3 h) was 38.2%, the Lym (3 h) was 78.6% and the MCH (3 h) was 21.9 pg. It also gave an MCHC (3 h) of 34.2%, an MCV (3 h) of 64.1 fL and a Mono (3 h) of 2.8%. It also gave a Neu (3 h) of 16.8%, a PT (3 h) of 12.8 s and a Plat (3 h) of 127.8 x10_4/uL. The RBC (3 h) was 596.2 x10_4/ul, the Ret (3 h) was 8.3% and the WBC (3 h) was 109.3 x10_2/uL. For the same compound, the KIDNEY_L (3 h) was 1 g, the KIDNEY_R (3 h) was 1 g and the KIDNEY_TOTAL (3 h) was 2 g. It also gave an LIVER (3 h) of 10 g, an A/G (3 h) of 1.7 and an ALP (3 h) of 1167.2 IU/L. It also gave an ALT (3 h) of 39.4 IU/L, an AST (3 h) of 70.2 IU/L and a BUN (3 h) of 9.6 mg/dL. The CRE (3 h) was 0.4 mg/dL, the Ca (3 h) was 10.6 mg/dL and the Cl (3 h) was 102.6 meq/L. The DBIL (3 h) was 0.072 mg/dL, the GLC (3 h) was 195 mg/dL and the IP (3 h) was 9.5 mg/dL. It also gave a K (3 h) of 4 meq/L, an LDH (3 h) of 154.4 IU/L and a Na (3 h) of 140.6 meq/L. For the same compound, the PL (3 h) was 140.6 mg/dL, the RALB (3 h) was 3.4 g/dL and the TBIL (3 h) was 0.1 mg/dL. It also gave a TC (3 h) of 75.2 mg/dL, a TG (3 h) of 47.4 mg/dL and a TP (3 h) of 5.5 g/dL. The gamma-GTP (3 h) was 0.6 IU/L, the TERMINAL_BW (6 h) was 209.9 g and the APTT (6 h) was 18.8 s. The Bas (6 h) was 0%, the Eos (6 h) was 1% and the Fbg (6 h) was 216.8 mg/dL. For the same compound, the Hb (6 h) was 13.2 g/dL, the Ht (6 h) was 38% and the Lym (6 h) was 77.6%. It also gave an MCH (6 h) of 22.2 pg, an MCHC (6 h) of 34.8% and an MCV (6 h) of 63.7 fL. For the same compound, the Mono (6 h) was 2.8%, the Neu (6 h) was 17.6% and the PT (6 h) was 13.1 s. For the same compound, the Plat (6 h) was 135.7 x10_4/uL, the RBC (6 h) was 596.8 x10_4/ul and the Ret (6 h) was 7.8%. The WBC (6 h) was 98.4 x10_2/uL, the KIDNEY_L (6 h) was 1 g and the KIDNEY_R (6 h) was 1 g. The KIDNEY_TOTAL (6 h) was 1.9 g, the LIVER (6 h) was 9.7 g and the A/G (6 h) was 1.6. It also gave an ALP (6 h) of 885 IU/L, an ALT (6 h) of 34.4 IU/L and an AST (6 h) of 64 IU/L. For the same compound, the BUN (6 h) was 9.6 mg/dL, the CRE (6 h) was 0.4 mg/dL and the Ca (6 h) was 10.6 mg/dL. For the same compound, the Cl (6 h) was 102.4 meq/L, the DBIL (6 h) was 0.07 mg/dL and the GLC (6 h) was 194.6 mg/dL. For the same compound, the IP (6 h) was 9.6 mg/dL, the K (6 h) was 3.7 meq/L and the LDH (6 h) was 180 IU/L. For the same compound, the Na (6 h) was 141.4 meq/L, the PL (6 h) was 138 mg/dL and the RALB (6 h) was 3.4 g/dL. For the same compound, the TBIL (6 h) was 0.1 mg/dL, the TC (6 h) was 70.6 mg/dL and the TG (6 h) was 61.4 mg/dL. The TP (6 h) was 5.5 g/dL, the gamma-GTP (6 h) was 1.8 IU/L and the TERMINAL_BW (9 h) was 209.3 g. It also gave an APTT (9 h) of 20.3 s, a Bas (9 h) of 0% and an Eos (9 h) of 1%. For the same compound, the Fbg (9 h) was 246 mg/dL, the Hb (9 h) was 12.9 g/dL and the Ht (9 h) was 36.9%. For the same compound, the Lym (9 h) was 74%, the MCH (9 h) was 22.4 pg and the MCHC (9 h) was 34.9%. For the same compound, the MCV (9 h) was 64.3 fL, the Mono (9 h) was 2.4% and the Neu (9 h) was 21%. The PT (9 h) was 13.7 s, the Plat (9 h) was 128.2 x10_4/uL and the RBC (9 h) was 575.2 x10_4/ul. The Ret (9 h) was 8.7%, the WBC (9 h) was 88 x10_2/uL and the KIDNEY_L (9 h) was 1 g. The KIDNEY_R (9 h) was 1 g, the KIDNEY_TOTAL (9 h) was 1.9 g and the LIVER (9 h) was 9.2 g. The A/G (9 h) was 1.6, the ALP (9 h) was 890.8 IU/L and the ALT (9 h) was 31.4 IU/L. The AST (9 h) was 62 IU/L, the BUN (9 h) was 11.6 mg/dL and the CRE (9 h) was 0.3 mg/dL. For the same compound, the Ca (9 h) was 10.5 mg/dL, the Cl (9 h) was 103.4 meq/L and the DBIL (9 h) was 0.076 mg/dL. It also gave a GLC (9 h) of 194.4 mg/dL, an IP (9 h) of 10 mg/dL and a K (9 h) of 3.9 meq/L. The LDH (9 h) was 137.4 IU/L, the Na (9 h) was 141.4 meq/L and the PL (9 h) was 135 mg/dL. For the same compound, the RALB (9 h) was 3.4 g/dL, the TBIL (9 h) was 0.1 mg/dL and the TC (9 h) was 74.4 mg/dL. It also gave a TG (9 h) of 42.8 mg/dL, a TP (9 h) of 5.5 g/dL and a gamma-GTP (9 h) of 1.2 IU/L. For the same compound, the TERMINAL_BW (24 h) was 225.6 g, the APTT (24 h) was 19.4 s and the Bas (24 h) was 0%. For the same compound, the Eos (24 h) was 1%, the Fbg (24 h) was 227.2 mg/dL and the Hb (24 h) was 12.7 g/dL. It also gave a Ht (24 h) of 37.8%, a Lym (24 h) of 79.8% and an MCH (24 h) of 21.5 pg. For the same compound, the MCHC (24 h) was 33.7%, the MCV (24 h) was 63.7 fL and the Mono (24 h) was 3.2%. It also gave a Neu (24 h) of 14.8%, a PT (24 h) of 12.8 s and a Plat (24 h) of 135 x10_4/uL. The RBC (24 h) was 593.4 x10_4/ul, the Ret (24 h) was 7.2% and the WBC (24 h) was 109.1 x10_2/uL. For the same compound, the KIDNEY_L (24 h) was 1 g, the KIDNEY_R (24 h) was 1.1 g and the KIDNEY_TOTAL (24 h) was 2.1 g. For the same compound, the LIVER (24 h) was 11.2 g, the A/G (24 h) was 1.7 and the ALP (24 h) was 1060 IU/L. The ALT (24 h) was 35.2 IU/L, the AST (24 h) was 64.4 IU/L and the BUN (24 h) was 15.8 mg/dL. It also gave a CRE (24 h) of 0.4 mg/dL, a Ca (24 h) of 10.8 mg/dL and a Cl (24 h) of 102.2 meq/L. For the same compound, the DBIL (24 h) was 0.1 mg/dL, the GLC (24 h) was 199.4 mg/dL and the IP (24 h) was 6.9 mg/dL. For the same compound, the K (24 h) was 4.2 meq/L, the LDH (24 h) was 155.6 IU/L and the Na (24 h) was 140 meq/L. For the same compound, the PL (24 h) was 143.8 mg/dL, the RALB (24 h) was 3.4 g/dL and the TBIL (24 h) was 0.2 mg/dL. The TC (24 h) was 73.2 mg/dL, the TG (24 h) was 98.8 mg/dL and the TP (24 h) was 5.5 g/dL. It also gave a gamma-GTP (24 h) of 1.6 IU/L.
